In US5362752A, “Chemical compounds” (Merck & Co., Inc., priority 1993, dated 1994):

Target: T1, squalene synthase (Homo sapiens, UniProt P37268)
T1 construct: PREPARATION OF HUMAN HEPG2 CELL ENZYME; host or cells: HepG2 (human hepatoblastoma), sonicated cell extract
T1 sequence (P37268 1-417): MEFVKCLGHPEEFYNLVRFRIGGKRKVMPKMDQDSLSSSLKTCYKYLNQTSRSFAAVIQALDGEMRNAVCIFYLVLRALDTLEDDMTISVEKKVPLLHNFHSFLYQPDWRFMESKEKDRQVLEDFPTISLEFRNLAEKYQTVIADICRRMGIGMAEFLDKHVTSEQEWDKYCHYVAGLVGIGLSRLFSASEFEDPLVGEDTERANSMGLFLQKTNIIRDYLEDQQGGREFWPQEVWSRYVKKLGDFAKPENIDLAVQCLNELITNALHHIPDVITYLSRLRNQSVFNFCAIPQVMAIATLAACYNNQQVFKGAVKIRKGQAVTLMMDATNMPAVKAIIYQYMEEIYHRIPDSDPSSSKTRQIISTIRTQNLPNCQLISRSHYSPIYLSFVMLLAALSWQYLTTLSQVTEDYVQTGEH
Assay: Squalene synthase assay with human HepG2 cell enzyme
Format: biochemical
Details: HepG2 enzyme preparation, 3 μM 3H-farnesyl pyrophosphate substrate, 30° C., 20 minutes; read-out: IC50 (squalene synthase inhibition)
Experimental: The intrinsic squalene synthase inhibitory activity of the compounds of this invention was measured by the standard in vitro protocol described below:
PREPARATION OF HUMAN HEPG2 CELL ENZYME
1. Source: HEPG2 CELL LINE (Liver, hepatoblastoma, Human) ATCC No. HB 8065
Culture Medium: Minimum essential medium (MEM) with non-essential amino acids, sodium pyruvate, and 10% fetal bovine serum. The medium was changed twice weekly. […] The growth medium is prepared as listed below.
48 hrs. prior to harvest, switch cells grown in MEM with Fetal Calf serum to MEM with 10% delipidated serum.
Remove medium, wash with PBS, add fresh trypsin (0.25%)-EDTA (0.02%) with Hank's Balanced Salt solution, rinse and remove. Incubate flask at 37° C. until cells detach. Add 6 mL of MEM medium per flask to suspend cells and combine into centrifuge tube. […]
For each reaction, 55 μL of buffer mixture was taken with 5 μL of an inhibitor solution in DMSO and 10 μL of diluted enzyme (1 to 250 as described in the enzyme preparation; the final protein concentration of enzyme in the assay is 2 μg per mL.). […] 150 μL of heptane layer was then removed into a 96 deep well plate and mixed with 150 μL of scintillation fluid and the radioactivity was determined by liquid scintillation counting. […]
IC50 values were determined by plotting the log of the concentration of the test compound versus the percentage inhibition. […]

IC50: < 2 µM
Compound: C=C(CCC(=O)C(O)C(OC(=O)/C=C/C(C)CC(C)CC)C(=O)O)C(OC(C)=O)C(C)Cc1ccccc1 (stereo not shown) [Composition A]
